From patent EP4563146A1 (IRBM S.P.A., priority 2023, dated 2025)
pEC50, pIC50: −log10 of the molar value. Like-named read-outs stand apart in the source and are kept apart here.

What was measured:
[1] = biological target: T1, West Nile Virus (WNV) NS2B-NS3 protease (West Nile virus, UniProt Q9Q6P4); assay: WNV protease inhibition assay; type: biochemical; conditions: Table 4; letter codes for IC50
T1 construct: NS2B1423-1470); purchased R&D 2907-SE-020
Excerpt: WNV protease inhibition assay

[2] = test system: ZIKV replicon; assay: ZIKV replication inhibition assay (NanoLuc replicon in Vero cells); conditions: 72 h
[3] = Zika virus, Vero, read-out: ZIKA Cell_Nanoluc, Vero cells with stable ZIKV replicon, 72 h, Nano-Glo readout
[4] = Zika virus, Vero, read-out: ZIKA Cell_Nanoluc
[5] = read-out: ZIKA Cell_Nanoluc, Vero cells with stable ZIKV replicon, Nano-Glo readout

T1 sequence (Q9Q6P4 1423-1470): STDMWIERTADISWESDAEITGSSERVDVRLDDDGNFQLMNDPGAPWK
T1 sequence (Q9Q6P4 1506-1689): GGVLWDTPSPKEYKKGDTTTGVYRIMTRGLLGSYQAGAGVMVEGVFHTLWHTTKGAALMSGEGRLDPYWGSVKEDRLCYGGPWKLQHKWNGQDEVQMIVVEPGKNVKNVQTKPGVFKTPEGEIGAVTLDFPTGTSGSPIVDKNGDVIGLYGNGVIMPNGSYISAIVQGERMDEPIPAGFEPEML

| Compound | pIC50 [1] | pEC50 [2, 3] | pEC50 [2, 4] | pEC50 [2, 5] |
| --- | --- | --- | --- | --- |
| Cc1nn(C)cc1-c1ccc(C[n+]2cc([N-]C(=O)Nc3ccnc(C(F)(F)F)c3)on2)cc1 [Example 237, (3-(4-(1,3-Dimethyl-1H-pyrazol-4-yl)benzyl)-1,2,3-oxadiazol-3-ium-5-yl)((2-(trifluoromethyl)-pyridin-4-yl)carbamoyl)amide] | 6.00 to 7.00 | 4.70 to 6.00 |  |  |
| Cc1cnn(C)c1-c1ccc(C[n+]2cc([N-]C(=O)Nc3ccc(C#N)c(C(F)(F)F)c3)on2)cc1 [Example 238, ((4-Cyano-3-(trifluoromethyl)phenyl)-carbamoyl)(3-(4-(1,4-dimethyl-1H-pyrazol-5-yl)benzyl)-1,2,3-oxadiazol-3-ium-5-yl)amide] | 6.00 to 7.00 | 4.70 to 6.00 |  |  |
| Cc1cnn(C2COC2)c1-c1ccc(C[n+]2cc([N-]C(=O)Nc3ccnc(C(F)(F)F)c3)on2)cc1 [Example 239, (3-((4-(4-Methyl-2-(oxetan-3-yl)pyrazol-3-yl]phenyl)methyl)oxadiazol-3-ium-5-yl)-((2-(trifluoromethyl)pyridin-4-yl)carbamoyl)-azanide] | > 7.00 |  | > 7.00 |  |
| Cc1ccccc1CC(=O)Nc1cc(NC(=O)[N-]c2c[n+]([C@H]3CCCC[C@H]3O)no2)cc(C(F)(F)F)c1 [Example 240, (3-((1S,2R)-2-Hydroxycyclohexyl)-1,2,3-oxadiazol-3-ium-5-yl)((3-(2-(o-tolyl)acetamido)-5-(trifluoromethyl)phenyl)carbamoyl)amide] | 6.00 to 7.00 | 4.70 to 6.00 |  |  |
| Cc1ncncc1[C@H]1CC[C@H](C[n+]2cc([N-]C(=O)Nc3ccnc(C(F)(F)F)c3)on2)CC1 [Example 241, (3-(((1R,4S)-4-(4-Methylpyrimidin-5-yl)cyclohexyl)methyl)-1,2,3-oxadiazol-3-ium-5-yl)((2-(trifluoromethyl)pyridin-4-yl)carbamoyl)-amide] | > 7.00 |  | 6.00 to 7.00 |  |
| Cc1ccccc1CC(=O)Nc1cc(NC(=O)[N-]c2c[n+]([C@H]3CC[C@H](C(=O)N(C)C)CC3)no2)cc(C(F)(F)F)c1 [Example 248, (3-((1R,4R)-4-(Dimethylcarbamoyl)-cyclohexyl)-1,2,3-oxadiazol-3-ium-5-yl)((3-(2-(o-tolyl)acetamido)-5-(trifluoromethyl)phenyl)-carbamoyl)amide] | > 7.00 |  | 4.70 to 6.00 |  |
| COc1ccc(NC(=O)[N-]c2c[n+](Cc3ccc(-c4c(C)ncnc4C)cc3)no2)cc1C(F)(F)F [Example 249, (3-(4-(4,6-Dimethylpyrimidin-5-yl)benzyl)-1,2,3-oxadiazol-3-ium-5-yl)((4-methoxy-3-(trifluoromethyl)phenyl)carbamoyl)amide] | 6.00 to 7.00 | > 7.00 |  |  |
| Cc1cn(C2COC2)nc1-c1ccc(C[n+]2cc([N-]C(=O)Nc3ccnc(C(F)(F)F)c3)on2)cc1 [Example 250, (3-(4-(4-Methyl-1-(oxetan-3-yl)-1H-pyrazol-3-yl)benzyl)-1,2,3-oxadiazol-3-ium-5-yl)((2-(trifluoromethyl)pyridin-4-yl)carbamoyl)amide] | 6.00 to 7.00 | 6.00 to 7.00 |  |  |
| CNC(=O)[C@H]1CC[C@H]([n+]2cc([N-]C(=O)Nc3cc(NC(=O)Cc4ccccc4C)cc(C(F)(F)F)c3)on2)CC1 [Example 251, rac-(3-((1R,4R)-4-(Methylcarbamoyl)-cyclohexyl)-1,2,3-oxadiazol-3-ium-5-yl)((3-(2-(o-tolyl)acetamido)-5-(trifluoromethyl)phenyl)-carbamoyl)amide] | 6.00 to 7.00 |  | 4.70 to 6.00 |  |
| Cc1ccccc1CC(=O)Nc1cc(NC(=O)[N-]c2c[n+]([C@H]3CC[C@H](C(=O)N4CCCC4)CC3)no2)cc(C(F)(F)F)c1 [Example 254, (3-((1R,4R)-4-(Pyrrolidine-1-carbonyl)-cyclohexyl)-1,2,3-oxadiazol-3-ium-5-yl)((3-(2-(o-tolyl)acetamido)-5-(trifluoromethyl)phenyl)-carbamoyl)amide] | > 7.00 |  | 4.70 to 6.00 |  |
| Cc1ccccc1CC(=O)Nc1cc(NC(=O)[N-]c2c[n+]([C@@H]3CCC[C@H](C(N)=O)C3)no2)cc(C(F)(F)F)c1 [Example 255, (3-((1R,3S)-3-Carbamoylcyclohexyl)-1,2,3-oxadiazol-3-ium-5-yl)((3-(2-(o-tolyl)acetamido)-5-(trifluoromethyl)phenyl)carbamoyl)amide] | 6.00 to 7.00 | 4.70 to 6.00 |  |  |
| Cc1ccccc1CC(=O)Nc1cc(NC(=O)[N-]c2c[n+]([C@H]3CC[C@H](N(C)C)CC3)no2)cc(C(F)(F)F)c1 [Example 257, (3-((1R,4R)-4-(Dimethylamino)cyclohexyl)-1,2,3-oxadiazol-3-ium-5-yl)((3-(2-(o-tolyl)-acetamido)-5-(trifluoromethyl)phenyl)-carbamoyl)amide] | > 7.00 |  | 4.70 to 6.00 |  |
| Cc1ncccc1-c1ccc(C[n+]2cc([N-]C(=O)Nc3ccnc(C(F)(F)F)c3)on2)cc1 [Example 258, (3-(4-(2-Methylpyridin-3-yl)benzyl)-1,2,3-oxadiazol-3-ium-5-yl)((2-(trifluoromethyl)pyridin-4-yl)carbamoyl)amide] | > 7.00 | > 7.00 |  |  |
| Cc1nc(-c2ccc(C[n+]3cc([N-]C(=O)Nc4ccnc(C(F)(F)F)c4)on3)cc2)c(C)s1 [Example 259, (3-(4-(2,5-Dimethylthiazol-4-yl)benzyl)-1,2,3-oxadiazol-3-ium-5-yl)((2-(trifluoromethyl)pyridin-4-yl)carbamoyl)amide] | 6.00 to 7.00 | > 7.00 |  |  |
| Cc1nc(N)ncc1-c1ccc(C[n+]2cc([N-]C(=O)Nc3ccnc(C(F)(F)F)c3)on2)cc1 [Example 260, (3-(4-(2-Amino-4-methylpyrimidin-5-yl)benzyl)-1,2,3-oxadiazol-3-ium-5-yl)((2-(trifluoromethyl)pyridin-4-yl)carbamoyl)amide] | > 7.00 | > 7.00 |  |  |
| Cc1ncnc(C)c1-c1ccc(C[n+]2cc([N-]C(=O)Nc3ccc(O)c(C(F)(F)F)c3)on2)cc1 [Example 261, (3-(4-(4,6-Dimethylpyrimidin-5-yl)benzyl)-1,2,3-oxadiazol-3-ium-5-yl)((4-hydroxy-3-(trifluoromethyl)phenyl)carbamoyl)amide] | > 7.00 | > 7.00 |  |  |
| COC(=O)c1ccc(NC(=O)[N-]c2c[n+](Cc3ccc(-c4c(C)ncnc4C)cc3)no2)cc1C(F)(F)F [Example 262, (3-(4-(4,6-Dimethylpyrimidin-5-yl)benzyl)-1,2,3-oxadiazol-3-ium-5-yl)((4-(methoxy-carbonyl)-3-(trifluoromethyl)phenyl)carbamoyl) amide] | 6.00 to 7.00 | 6.00 to 7.00 |  |  |
| Cc1ccnc(C)c1-c1ccc(C[n+]2cc([N-]C(=O)Nc3ccnc(C(F)(F)F)c3)on2)cc1 [Example 263, (3-(4-(2,4-Dimethylpyridin-3-yl)benzyl)-1,2,3-oxadiazol-3-ium-5-yl)((2-(trifluoromethyl)pyridin-4-yl)carbamoyl)amide] | > 7.00 | > 7.00 |  |  |
| CC(=O)Nc1ccc(NC(=O)[N-]c2c[n+](Cc3ccc(-c4c(C)ncnc4C)cc3)no2)cc1C(F)(F)F [Example 264, ((4-Acetamido-3-(trifluoromethyl)phenyl)-carbamoyl)(3-(4-(4,6-dimethylpyrimidin-5-yl)benzyl)-1,2,3-oxadiazol-3-ium-5-yl)amide] | > 7.00 | > 7.00 |  |  |
| Cc1ccccc1CC(=O)Nc1cc(NC(=O)[N-]c2c[n+](C3CCCC(CO)C3)no2)cc(C(F)(F)F)c1 (stereo not shown) [Example 265, (3-(3-(Hydroxymethyl)cyclohexyl)-1,2,3-oxadiazol-3-ium-5-yl)((3-(2-(o-tolyl)acetamido)-5-(trifluoromethyl)phenyl)carbamoyl)amide] | 6.00 to 7.00 | 4.70 to 6.00 |  |  |
| O=C([N-]c1c[n+](Cc2ccc(-c3cncnc3)cc2)no1)Nc1ccnc(C(F)(F)F)c1 [Example 266, (3-(4-(Pyrimidin-5-yl)benzyl)-1,2,3-oxadiazol-3-ium-5-yl)((2-(trifluoromethyl)pyridin-4-yl)carbamoyl)amide] | > 7.00 |  |  | > 7.00 |
| Cc1ccccc1CC(=O)Nc1cc(NC(=O)[N-]c2c[n+]([C@@H]3CCC[C@@H](C(N)=O)C3)no2)cc(C(F)(F)F)c1 [Example 267, (3-((1R,3R)-3-Carbamoylcyclohexyl)-1,2,3-oxadiazol-3-ium-5-yl)((3-(2-(o-tolyl)acetamido)-5-(trifluoromethyl)phenyl)carbamoyl)amide] | 6.00 to 7.00 |  |  | 4.70 to 6.00 |
| Cc1nn(C)c(C)c1-c1ccc(C[n+]2cc([N-]C(=O)Nc3ccnc(C(F)(F)F)c3)on2)cc1 [Example 268, ((2-(Trifluoromethyl)pyridin-4-yl)carbamoyl)(3-(4-(1,3,5-trimethyl-1H-pyrazol-4-yl)benzyl)-1,2,3-oxadiazol-3-ium-5-yl)amide] | > 7.00 | > 7.00 |  |  |
| Cc1ncnc(C)c1-c1ccc(C[n+]2cc([N-]C(=O)Nc3cc(C(F)(F)F)c4ncccc4c3)on2)cc1 [Example 272, (3-(4-(4,6-Dimethylpyrimidin-5-yl)benzyl)-1,2,3-oxadiazol-3-ium-5-yl)((8-(trifluoromethyl)-quinolin-6-yl)carbamoyl)amide] | 4.70 to 6.00 | 6.00 to 7.00 |  |  |
| CNC(=O)c1ccc(NC(=O)[N-]c2c[n+](Cc3ccc(-c4c(C)ncnc4C)cc3)no2)cc1C(F)(F)F [Example 273, (3-(4-(4,6-Dimethylpyrimidin-5-yl)benzyl)-1,2,3-oxadiazol-3-ium-5-yl)((4-(methyl-carbamoyl)-3-(trifluoromethyl)phenyl)carbamoyl)amide] | 6.00 to 7.00 | 4.70 to 6.00 |  |  |
| (3-((1R,4R)-4-((Dimethylamino)methyl)-cyclohexyl)-1,2,3-oxadiazol-3-ium-5-yl)((3-(2-(3- methoxyphenyl)acetamido)-5-(trifluoromethyl)- phenyl)carbamoyl)amide [Example 152] | 6.00 to 7.00 |  |  | 4.70 to 6.00 |
